One data set concerns the target Kv1.3 potassium channel (Homo sapiens (Human), UniProt P22001). The data set is described as follows: Kv1.3 potassium channel blocker activity, automated whole-cell patch clamp in CHO-K1 cells stably expressing Kv1.3. Format: cell-based. To be noted: Patchliner patch clamp. As for the experimental part:
Example 21. Evaluation of Kv1.3 Potassium Channel Blocker Activities
This assay is used to evaluate the disclosed compounds' activities as Kv1.3 potassium channel blockers.
CHO-K1 cells stably expressing Kv1.3 were grown in DMEM containing 10% heat-inactivated FBS, 1 mM sodium pyruvate, 2 mM L-glutamine, and G418 (500 μg/ml). Cells were grown in culture flasks at 37° C. in a 5% C02-humidified incubator.
The cells were bathed in an extracellular solution containing 140 mM NaCl, 4 mM KCl, 2 mM CaCl2), 1 mM MgCl2, 5 mM glucose, 10 mM HEPES; pH adjusted to 7.4 with NaOH; 295-305 mOsm. The internal solution contained 50 mM KCl, 10 mM NaCl, 60 mM KF, 20 mM EGTA, 10 mM HEPES; pH adjusted to 7.2 with KOH; 285 mOsm. All compounds were dissolved in DMSO at 30 mM. Compound stock solutions were freshly diluted with external solution to concentrations of 30 nM, 100 nM, 300 nM, 1 μM, 3 μM, 10 μM, 30 μM and 100 μM. The highest content of DMSO (0.3%) was present in 100 μM.
The currents were evoked by applying 100 ms depolarizing pulses from −90 mV (holding potential) to +40 mV were applied with 0.1 Hz frequency. Control (compound-free) and compound pulse trains for each compound concentration applied contained 20 pulses. 10-second breaks were used between pulse trains (see Table A below).
Whole-cell current recordings and compound application were enabled by means of an automated patch clamp platform Patchliner (Nanion Technologies GmbH). EPC 10 patch clamp amplifier (HEKA Elektronik Dr. Schulze GmbH) along with Patchmaster software (HEKA Elektronik Dr. Schulze GmbH) was used for data acquisition. Data were sampled at 10 kHz without filtering. Passive leak currents were subtracted online using a P/4 procedure (HEKA Elektronik Dr. Schulze GmbH). Increasing compound concentrations were applied consecutively to the same cell without washouts in between. Total compound incubation time before the next pulse train was not longer than 10 seconds. Peak current inhibition was observed during compound equilibration.
(§1) AUC and peak values were obtained with Patchmaster (HEKA Elektronik Dr. Schulze GmbH). To determine IC50, the last single pulse in the pulse train corresponding to a given compound concentration was used. Obtained AUC and peak values in the presence of compound were normalized to control values in the absence of compound. Using Origin (OridinLab), IC50 was derived from data fit to Hill equation: Icompound/Icontrol=(100-A)/(1+([compound]/IC50)nH)+A, where IC50 value is the concentration at which current inhibition is half-maximal, [compound] is the applied compound concentration, A is the fraction of current that is not blocked and nH is the Hill coefficient.

Another data set has as its target hERG channel (Homo sapiens (Human), UniProt Q12809). The experiment in a line: hERG electrophysiology, automated whole-cell patch clamp in CHO-K1 cells stably expressing hERG. Format: cell-based. To be noted: Patchliner patch clamp. The procedure: Example 22. Evaluation of hERG Activities
This assay is used to evaluate the disclosed compounds's inhibition activities against the hERG channel.
This assay is used to evaluate the disclosed compounds' inhibition activities against the hERG channel.
CHO-K1 cells stably expressing hERG were grown in Ham's F-12 Medium with glutamine containing 10% heat-inactivated FBS, 1% penicillin/streptomycin, hygromycin (100 μg/ml) and G418 (100 μg/ml). Cells were grown in culture flasks at 37° C. in a 5% CO2— humidified incubator.
The cells were bathed in an extracellular solution containing 140 mM NaCl, 4 mM KCl, 2 mM CaCl2), 1 mM MgCl2, 5 mM Glucose, 10 mM HEPES; pH adjusted to 7.4 with NaOH; 295-305 mOsm. The internal solution contained 50 mM KCl, 10 mM NaCl, 60 mM KF, 20 mM EGTA, 10 mM HEPES; pH adjusted to 7.2 with KOH; 285 mOsm. All compounds were dissolved in DMSO at 30 mM. Compound stock solutions were freshly diluted with external solution to concentrations of 30 nM, 100 nM, 300 nM, 1 μM, 3 μM, 10 μM, 30 μM and 100 μM. The highest content of DMSO (0.3%) was present in 100 μM.
The voltage protocol (see Table B) was designed to simulate voltage changes during a cardiac action potential with a 300 ms depolarization to +20 mV (analogous to the plateau phase of the cardiac action potential), a repolarization for 300 ms to −50 mV (inducing a tail current) and a final step to the holding potential of −80 mV. The pulse frequency was 0.3 Hz. Control (compound-free) and compound pulse trains for each compound concentration applied contained 70 pulses.
Whole-cell current recordings and compound application were enabled by means of an automated patch clamp platform Patchliner (Nanion). EPC 10 patch clamp amplifier (HEKA) along with Patchmaster software (HEKA Elektronik Dr. Schulze GmbH) was used for data acquisition. Data were sampled at 10 kHz without filtering. Increasing compound concentrations were applied consecutively to the same cell without washouts in between.
as §1, with “PEAK” for “peak”, “IC50” for “IC50,”, “Icompound/Icontrol=(100−A)/(1+([compound]/IC50)nH)+A,” for “Icompound/Icontrol=(100-A)/(1+([compound]/IC50)nH)+A,”, “IC50” for “IC50 value”
(The hERG channel carries a current that helps repolarise heart muscle cells.)

Kv1.3 potassium channel, sequence (P22001 whole entry): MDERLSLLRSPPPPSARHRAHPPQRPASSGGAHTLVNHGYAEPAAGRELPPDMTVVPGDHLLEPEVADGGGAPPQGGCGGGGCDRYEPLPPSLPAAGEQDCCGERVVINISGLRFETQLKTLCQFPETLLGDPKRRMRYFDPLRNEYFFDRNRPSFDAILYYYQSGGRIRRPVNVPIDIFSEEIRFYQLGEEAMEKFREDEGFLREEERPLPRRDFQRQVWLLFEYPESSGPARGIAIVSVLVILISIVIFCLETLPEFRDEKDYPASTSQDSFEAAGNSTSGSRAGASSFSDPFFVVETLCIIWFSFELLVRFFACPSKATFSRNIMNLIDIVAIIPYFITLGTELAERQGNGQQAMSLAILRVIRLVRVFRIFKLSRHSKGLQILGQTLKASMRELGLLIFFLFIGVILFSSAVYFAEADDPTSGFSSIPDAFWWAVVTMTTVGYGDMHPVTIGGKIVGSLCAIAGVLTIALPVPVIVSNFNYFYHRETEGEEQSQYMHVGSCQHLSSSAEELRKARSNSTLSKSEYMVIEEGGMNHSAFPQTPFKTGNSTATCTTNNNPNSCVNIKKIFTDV
hERG channel, sequence (Q12809 whole entry): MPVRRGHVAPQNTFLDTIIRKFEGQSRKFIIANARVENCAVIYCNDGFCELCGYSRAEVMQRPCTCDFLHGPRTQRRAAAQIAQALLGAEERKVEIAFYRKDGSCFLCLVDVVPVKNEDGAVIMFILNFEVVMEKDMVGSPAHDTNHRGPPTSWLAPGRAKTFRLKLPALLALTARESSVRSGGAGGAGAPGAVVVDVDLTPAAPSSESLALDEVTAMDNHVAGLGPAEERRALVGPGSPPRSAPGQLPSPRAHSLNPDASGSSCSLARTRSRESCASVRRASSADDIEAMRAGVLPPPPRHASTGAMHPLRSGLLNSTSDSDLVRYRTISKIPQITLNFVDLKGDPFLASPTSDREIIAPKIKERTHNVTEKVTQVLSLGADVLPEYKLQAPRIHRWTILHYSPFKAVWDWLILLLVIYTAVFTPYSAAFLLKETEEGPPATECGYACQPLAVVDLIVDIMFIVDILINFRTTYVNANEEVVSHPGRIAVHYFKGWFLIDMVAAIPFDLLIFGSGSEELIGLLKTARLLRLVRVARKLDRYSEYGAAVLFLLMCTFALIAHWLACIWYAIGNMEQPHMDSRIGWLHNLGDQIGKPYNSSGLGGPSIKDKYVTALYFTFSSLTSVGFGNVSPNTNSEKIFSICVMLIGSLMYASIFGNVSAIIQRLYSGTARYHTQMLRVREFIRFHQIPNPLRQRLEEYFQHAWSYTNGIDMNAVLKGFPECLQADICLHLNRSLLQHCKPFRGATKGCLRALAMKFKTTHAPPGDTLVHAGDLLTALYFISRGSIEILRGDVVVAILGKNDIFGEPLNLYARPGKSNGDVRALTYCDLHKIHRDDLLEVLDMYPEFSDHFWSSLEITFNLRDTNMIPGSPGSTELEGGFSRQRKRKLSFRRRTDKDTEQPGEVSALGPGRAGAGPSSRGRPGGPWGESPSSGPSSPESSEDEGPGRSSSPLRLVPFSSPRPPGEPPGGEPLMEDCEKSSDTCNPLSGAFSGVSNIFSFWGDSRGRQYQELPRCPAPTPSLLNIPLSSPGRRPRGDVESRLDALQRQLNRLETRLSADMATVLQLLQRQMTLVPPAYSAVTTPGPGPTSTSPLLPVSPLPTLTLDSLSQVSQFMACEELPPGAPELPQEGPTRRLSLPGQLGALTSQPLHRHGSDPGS

For orientation: IC50 means the concentration at which inhibition is half-maximal. The low end stands for greater potency, the high end for weaker potency. As to `Oc1ccc(Cl)c(Cl)c1[C@H]1C[C@@H](Cc2cn[nH]c2)CN1` [Compound 54, 3,4-dichloro-2-[(2R,4R)-4-(1H-pyrazol-4-ylmethyl)pyrrolidin-2-yl] phenol], the IC50 is under 0.1 µM against Kv1.3 potassium channel and over 10 µM at hERG channel.
Consider `Oc1ccc(Cl)c(Cl)c1[C@H]1C[C@@H](Cc2cc[nH]n2)CN1` [Compound 55, 2-((2R,4S)-4-((1H-pyrazol-3-yl)methyl)pyrrolidin-2-yl)-3,4-dichlorophenol], for which the concentration for half-maximal inhibition (IC50) on Kv1.3 potassium channel is under 1 µM; against hERG channel, over 10 µM.
Consider `O=C(C[C@H]1CN[C@@H](c2c(O)ccc(Cl)c2Cl)C1)N1CC(O)C1` [Compound 56, 2-((3S,5R)-5-(2,3-dichloro-6-hydroxyphenyl)pyrrolidin-3-yl)-1-(3-hydroxyazetidin-1-yl)ethan-1-one], for which the IC50 against Kv1.3 potassium channel is under 0.1 µM; on hERG channel it was over 100 µM.
Regarding `O=C(C[C@H]1CN[C@@H](c2c(O)ccc(Cl)c2Cl)C1)N1CCC[C@@H](O)C1` [Compound 58, 2-((3S,5R)-5-(2,3-dichloro-6-hydroxyphenyl)pyrrolidin-3-yl)-1-((R)-3-hydroxypipeiridn-1-yl)ethan-1-one], the figures for the 50% inhibitory concentration (IC50) against Kv1.3 potassium channel and on hERG channel were under 1 µM and over 30 µM, respectively.
Taken in the same sequence, the figures for `CC1(O)CN(C(=O)C[C@H]2CN[C@@H](c3c(O)ccc(Cl)c3Cl)C2)C1` [Compound 61, 2-((3S,5R)-5-(2,3-dichloro-6-hydroxyphenyl)pyrrolidin-3-yl)-1-(3-hydroxy-3-methylazetidin-1-yl)ethan-1-one] were under 0.1 µM and over 100 µM.
For `C[C@H](CO)NC(=O)C[C@H]1CN[C@@H](c2c(O)ccc(Cl)c2Cl)C1` [Compound 63, 2-((3S,5R)-5-(2,3-dichloro-6-hydroxyphenyl)pyrrolidin-3-yl)-N-((R)-1-hydroxypropan-2-yl)acetamide], in that order: under 0.1 µM and over 100 µM.
On to `C[C@@H](O)CNC(=O)C[C@H]1CN[C@@H](c2c(O)ccc(Cl)c2Cl)C1` [Compound 64, 2-((3S,5R)-5-(2,3-dichloro-6-hydroxyphenyl)pyrrolidiin-3-yl)-N-((R)-2-hydroxypropyl)acetamide], for which the figures for the IC50 at Kv1.3 potassium channel and against hERG channel were under 0.1 µM and over 100 µM, respectively.
Taken in the same sequence, the figures for `C[C@H](O)CNC(=O)C[C@H]1CN[C@@H](c2c(O)ccc(Cl)c2Cl)C1` [Compound 65, 2-((3S,5R)-5-(2,3-dichloro-6-hydroxyphenyl)pyrrolidin-3-yl)-N-((S)-2-hydroxypropyl)acetamide] were under 0.1 µM and over 100 µM.
On to `CC(C)(O)CNC(=O)C[C@H]1CN[C@@H](c2c(O)ccc(Cl)c2Cl)C1` [Compound 66, 2-((3S,5R)-5-(2,3-dichloro-6-hydroxyphenyl)pyrrolidin-3-yl)-N-(2-hydroxy-2-methylpropyl)acetamide], for which the IC50 against Kv1.3 potassium channel was under 1 µM; on hERG channel, over 100 µM.
With `O=C(C[C@H]1CN[C@@H](c2c(O)ccc(Cl)c2Cl)C1)N1CC[C@@H]1CO` [Compound 67, 2-((3S,5R)-5-(2,3-dichloro-6-hydroxyphenyl)pyrrolidin-3-yl)-1-((R)-2-(hydroxymethyl)azetidin-1-yl)ethan-1-one], the IC50 is under 1 µM on Kv1.3 potassium channel and over 100 µM against hERG channel.
For `O=C(C[C@H]1CN[C@@H](c2c(O)ccc(Cl)c2Cl)C1)N1CC[C@H]1CO` [Compound 68, 2-((3S,5R)-5-(2,3-dichloro-6-hydroxyphenyl)pyrrolidin-3-yl)-1-((S)-2-(hydroxymethyl)azetidin-1-yl)ethan-1-one], in that order: under 1 µM and over 100 µM.
For `CC(C)(CO)NC(=O)C[C@H]1CN[C@@H](c2c(O)ccc(Cl)c2Cl)C1` [Compound 71, 2-((3S,5R)-5-(2,3-dichloro-6-hydroxyphenyl)pyrrolidin-3-yl)-N-(1-hydroxy-2-methylpropan-2-yl)acetamide], the IC50 is under 1 µM against Kv1.3 potassium channel and over 100 µM at hERG channel.
